The text below walks through data of publication PMC8480782, “Efficient Dimerization Disruption of Leishmania infantum Trypanothione Reductase by Triazole-phenyl-thiazoles” (Journal of Medicinal Chemistry, 2021).

One series addresses T1, human glutathione-disulfide reductase (hGR) (Homo sapiens, UniProt P00390).
T1 construct: HIS (vector pRSETA); made in house
T1 sequence (P00390 44-522): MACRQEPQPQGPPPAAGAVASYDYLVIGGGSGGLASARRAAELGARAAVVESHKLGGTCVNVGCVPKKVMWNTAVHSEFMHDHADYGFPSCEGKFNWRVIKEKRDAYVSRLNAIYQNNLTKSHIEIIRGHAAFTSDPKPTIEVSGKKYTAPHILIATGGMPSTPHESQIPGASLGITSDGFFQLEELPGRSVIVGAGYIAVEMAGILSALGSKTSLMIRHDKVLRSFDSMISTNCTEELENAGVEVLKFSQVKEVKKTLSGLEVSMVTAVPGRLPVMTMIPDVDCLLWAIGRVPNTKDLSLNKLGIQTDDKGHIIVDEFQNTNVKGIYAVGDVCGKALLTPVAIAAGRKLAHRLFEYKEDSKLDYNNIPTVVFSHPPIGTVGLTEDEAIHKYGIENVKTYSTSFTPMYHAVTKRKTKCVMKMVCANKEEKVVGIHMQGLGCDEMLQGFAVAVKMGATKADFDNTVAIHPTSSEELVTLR
Description: hGR oxidoreductase activity, DTNB-coupled assay. The class given is biochemical.
Details: not given
The source says: The DNA coding sequences for Homo sapiens GR, T. brucei TryR, and T. congolense TryR were polymerase chain reaction (PCR)-amplified and cloned in the pRSETA plasmid. The DNA coding for hGR (transcript variant 1; NCBI Reference Sequence: NM_000637.5) was purchased from GeneScript. Genomic DNA from T. congolense parasites was kindly provided by Dr. Stefan Magez (University of Vrije, Brussels). Genomic DNA from the T. brucei S16 cell line was kindly provided by José M. Pérez-Victoria. Instituto de Parasitología y Biomedicina “López—Neyra” CSIC. HIS-tagged recombinant T. brucei and T. congolense TryRs (TbTryR and TcoTryR, respectively) were purified from E. coli as already explained for LiTryR.
hGR oxidoreductase activity was determined spectrophotometrically using a DTNB-coupled assay. Briefly, reactions were carried out at 37 °C in 250 μL of HEPES buffer (pH 7.5, 40 mM) containing EDTA (1 mM), NADP^+, (60 μM), DTNB (150 μM), oxidized glutathione (50 μM), NADPH (300 μM), glycerol (0.02%), DMSO (1.75%), and recombinant hGR (7 nM). […] TNB concentration was obtained by multiplying the absorbance values by 100 (50 μM TNB generates 0.5 arbitrary units of absorbance at 412 nm). All of the assays were conducted in at least three independent experiments. Data were analyzed using a nonlinear regression model with GraFit 6 software (Erithacus, Horley, Surrey, U.K.).
In the case of `NCCCCc1cn(-c2ccc(-c3nc(-c4ccccc4)cs3)c(OCCN3CCNC3=O)c2)nn1.O=C(O)C(F)(F)F` [12n], the “inhibitory activity against hGR” value is reported as “none of these compounds showed any inhibitory activity”.
Same read-out and setting: as for `NCCCCc1cn(-c2ccc(-c3nc(CCc4ccc5c(c4)CCO5)cs3)c(OCCN3CCNC3=O)c2)nn1.O=C(O)C(F)(F)F` [12r], the entry is “none of these compounds showed any inhibitory activity”; as for `NCCCCc1cn(-c2ccc(-c3nc(-c4ccccc4)c(-c4ccccc4)s3)c(OCCN3CCNC3=O)c2)nn1.O=C(O)C(F)(F)F` [19a, 1-(2-(5-(4-(4-Ammoniobutyl)-1H-1,2,3-triazol-1-yl)-2-(4,5-diphenylthiazol-2-yl)phenoxy)ethyl)imidazolidin-2-one 2,2,2-Trifluoroacetate], “none of these compounds showed any inhibitory activity”.

System in the next series: not listed separately
Description: Cytotoxicity in THP-1 monocyte-derived macrophages (LDH activity). In kind it is cell-based, human. Particulars: human; 75 μM (maximum concentration assayed); read-out: Cell viability of amastigote-infected THP-1 monocyte-derived macrophages at 75 μM. In outline:
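PMA-differentiated THP-1 macrophages, infected with GFP-expressing amastigotes, were treated 72 h at 37 °C in RPMI with 10% horse serum. After SDS lysis, LDH activity measured via lactate/NAD+/NBT formazan formation at 570 nm (Tris pH 8.9, 37 °C); CC50 by nonlinear regression.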
For the molecule `NCCCCc1cn(-c2ccc(-c3nc(CCc4ccc(-c5ccccc5)cc4)cs3)c(OCCN3CCNC3=O)c2)nn1.O=C(O)C(F)(F)F` [12c, 1-(2-(2-(4-(2-([1,1′-Biphenyl]-4-yl)ethyl)thiazol-2-yl)-5-(4-(4-ammoniumbutyl)-1H-1,2,3-triazol-1-yl)phenoxy)ethyl)imidazolidin-2-one 2,2,2-Trifluoroacetate], the viability – broadly, the share of living cells, or the viability signal relative to a control – at 72 h, 75 µM came to 100%.
Still for that read-out and setting: then `NCCCc1cn(-c2ccc(-c3nc(CCc4ccc(-c5ccccc5)cc4)cs3)c(OCCN3CCNC3=O)c2)nn1.O=C(O)C(F)(F)F` [12i], with 100%; and `NCCCCc1cn(-c2ccc(-c3nc(CCc4ccc5c(c4)CCCN5)cs3)c(OCCN3CCNC3=O)c2)nn1.O=C(O)C(F)(F)F.O=C(O)C(F)(F)F` [12q], with 67%.
The same measure, in the same setting: then `NCCCCc1cn(-c2ccc(-c3nc(-c4ccc(Oc5ccccc5)cc4)c(-c4ccccc4)s3)c(OCCN3CCNC3=O)c2)nn1.O=C(O)C(F)(F)F` [19c, 1-(2-(5-(4-(4-Ammoniobutyl)-1H-1,2,3-triazol-1-yl)-2-(4-([4-phenyloxyphenyl]-1-yl)-5-phenylthiazol-2-yl)phenoxy)ethyl)imidazolidin-2-one 2,2,2-Trifluoroacetate], with 63%.
